# Results taken from patent publication US20090253667A1, “18 ,21-Didesoxymacbecin Derivatives for the Treatment of Cancer” (priority 2006, published 2009).
# pKd: −log10 of the molar value.
# Assays:
# [1] = target: Yeast Hsp90 (Saccharomyces cerevisiae, UniProt P02829); assay: Isothermal titration calorimetry, Kd for Hsp90 binding; conditions: ITC at 30° C., 0.008 mM yeast Hsp90, 2% DMSO
# Description: Yeast Hsp90 was dialysed against 20 mM Tris pH 7.5 containing 1 mM EDTA and 5 mM NaCl and then diluted to 0.008 mM in the same buffer, but containing 2% DMSO. The test compounds were dissolved in 100% DMSO at a concentration of 50 mM and subsequently diluted to 0.1 mM in the same buffer as for Hsp90 with 2% DMSO. Heats of interaction were measured at 30° C. on a MSC system (Microcal), with a cell volume of 1.458 mL. 10 aliquots of 0.027 mL of 0.100 mM of each test compound were injected into 0.008 mM yeast Hsp90. Heats of dilution were determined in a separate experiment by injecting the test compound into buffer containing 2% DMSO, and the corrected data fitted using a nonlinear least square curve-fitting algorithm (Microcal Origin) with three floating variables: stoichiometry, binding constant and change in enthalpy of interaction.
# [2] = system: DU145; assay: Monolayer proliferation assay (modified propidium iodide assay); format: cell-based, human; conditions: 4 days continuous exposure
# Description: (§1) In vitro evaluation of compounds for anticancer activity in a panel of human tumour cell lines in a monolayer proliferation assay were carried out at the Oncotest Testing Facility, Institute for Experimental Oncology, Oncotest GmbH, Freiburg.
# (§2) The Oncotest cell lines were established from human tumor xenografts as described by Roth et al., (1999). The origin of the donor xenografts was described by Fiebig et al., (1999). Other cell lines were either obtained from the NCI (DU145, MCF-7) or purchased from DSMZ, Braunschweig, Germany.
# (§3) All cell lines, unless otherwise specified, were grown at 37° C. in a humidified atmosphere (95% air, 5% CO2) in a ‘ready-mix’ medium containing RPMI 1640 medium, 10% fetal calf serum, and 0.1 mg/mL gentamicin (PAA, Cölbe, Germany).
# (§4) A modified propidium iodide assay was used to assess the effects of the test compound(s) on the growth of human tumour cell lines (Dengler et al., (1995)).
# (§5) Briefly, cells were harvested from exponential phase cultures by trypsinization, counted and plated in 96 well flat-bottomed microtitre plates at a cell density dependent on the cell line (5-10.000 viable cells/well). After 24 h recovery to allow the cells to resume exponential growth, 0.010 mL of culture medium (6 control wells per plate) or culture medium containing the 18,21-didesoxymacbecin analogue was added to the wells. Each concentration was plated in triplicate. Compounds were applied in five concentrations (100; 10; 1; 0.1 and 0.01 μg/ml). Following 4 days of continuous exposure, cell culture medium with or without test compound was replaced by 0.2 mL of an aqueous propidium iodide (PI) solution (7 mg/L). To measure the proportion of living cells, cells may be permeabilized by freezing the plates. After thawing the plates, fluorescence was measured using the Cytofluor 4000 microplate reader (excitation 530 nm, emission 620 nm), giving a direct relationship to the total number of viable cells. Growth inhibition may be expressed as treated/control×100 (% T/C). This can be plotted as a graph of % T/C against concentration of test compound applied, which can then be used to calculate the concentration necessary to inhibit cell growth by 70% (IC70).
# (§6) In vitro evaluation of the test compounds for anticancer activity in a panel of human tumour cell lines in a monolayer proliferation assay was carried out as described in the general methods using a modified propidium iodide assay.
# [3] = system: MCF-7; assay: as above; format: cell-based, human; conditions: 4 days continuous exposure
# Description: as §1, §2, §3, §4, §5, §6
# [4] = system: LXF 1121L; assay: as above; format: cell-based, human; conditions: 4 days continuous exposure
# Description: as §1, §2, §3, §4, §5, §6
# [5] = system: CNXF 498NL; assay: as above; format: cell-based, human; conditions: 4 days continuous exposure
# Description: as §1, §2, §3, §4, §5, §6
# [6] = system: CXF HT29; assay: as above; format: cell-based, human; conditions: 4 days continuous exposure
# Description: as §1, §2, §3, §4, §5, §6
# [7] = system: MEXF 394NL; assay: as above; format: cell-based, human; conditions: 4 days continuous exposure
# Description: as §1, §2, §3, §4, §5, §6
# [8] = system: panel of human tumour cell lines; assay: Monolayer proliferation assay, mean IC70 across the cell line panel; format: cell-based; conditions: geometric mean of all replicates across the six cell lines
# Description: as §1, §2, §3, §4, §5, §6
# [9] = target: Hsp90 (Homo sapiens, UniProt P07900); conditions: cited from earlier work
# Yeast Hsp90, sequence (P02829 whole entry): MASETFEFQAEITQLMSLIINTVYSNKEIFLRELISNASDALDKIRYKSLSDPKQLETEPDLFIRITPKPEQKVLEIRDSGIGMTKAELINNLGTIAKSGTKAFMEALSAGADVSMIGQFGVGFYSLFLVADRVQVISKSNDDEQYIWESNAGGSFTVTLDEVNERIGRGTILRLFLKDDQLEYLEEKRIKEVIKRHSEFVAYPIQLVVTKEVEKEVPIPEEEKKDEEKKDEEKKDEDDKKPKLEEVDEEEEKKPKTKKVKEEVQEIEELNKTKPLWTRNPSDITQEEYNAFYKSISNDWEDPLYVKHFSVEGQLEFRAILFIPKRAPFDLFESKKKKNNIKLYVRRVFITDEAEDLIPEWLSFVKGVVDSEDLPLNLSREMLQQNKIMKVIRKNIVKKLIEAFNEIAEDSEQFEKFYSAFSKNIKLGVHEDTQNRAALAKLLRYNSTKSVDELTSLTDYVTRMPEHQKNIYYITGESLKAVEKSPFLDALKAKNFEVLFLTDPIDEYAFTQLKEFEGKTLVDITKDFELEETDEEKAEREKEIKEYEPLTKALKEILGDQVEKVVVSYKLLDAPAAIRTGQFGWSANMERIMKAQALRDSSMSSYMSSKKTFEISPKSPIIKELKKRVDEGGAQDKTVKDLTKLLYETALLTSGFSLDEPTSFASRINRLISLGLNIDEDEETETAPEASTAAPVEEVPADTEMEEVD
Structure (SMILES),pKd [1],"Test/Control (%) at drug concentration ([2]; DU145, 0.01 μg/mL)","Test/Control (%) at drug concentration ([2]; DU145, 0.1 μg/mL)","Test/Control (%) at drug concentration ([2]; DU145, 1 μg/mL)","Test/Control (%) at drug concentration ([2]; DU145, 10 μg/mL)","Test/Control (%) at drug concentration ([2]; DU145, 100 μg/mL)","Test/Control (%) at drug concentration ([3]; MCF-7, 0.01 μg/mL)","Test/Control (%) at drug concentration ([3]; MCF-7, 0.1 μg/mL)","Test/Control (%) at drug concentration ([3]; MCF-7, 1 μg/mL)","Test/Control (%) at drug concentration ([3]; MCF-7, 10 μg/mL)","Test/Control (%) at drug concentration ([3]; MCF-7, 100 μg/mL)",Test/Control (%) at drug concentration ([4]; 0.01 μg/mL),Test/Control (%) at drug concentration ([4]; 0.1 μg/mL),Test/Control (%) at drug concentration ([4]; 1 μg/mL),Test/Control (%) at drug concentration ([4]; 10 μg/mL),Test/Control (%) at drug concentration ([4]; 100 μg/mL),Test/Control (%) at drug concentration ([5]; 0.01 μg/mL),Test/Control (%) at drug concentration ([5]; 0.1 μg/mL),Test/Control (%) at drug concentration ([5]; 1 μg/mL),average IC70 value across the cell-line panel [8],also measured
"CO[C@H]1C[C@H](C)Cc2cc(F)cc(c2)NC(=O)/C(C)=C/CC[C@H](C)[C@@H](OC(N)=O)/C(C)=C/[C@H](C)[C@H]1O [Compound 18, 4,5-dihydro-11-O-desmethyl-15-desmethoxy-18-fluoro-18,21-didesoxymacbecin]",7.63,66%,9%,8%,9%,6%,77%,27%,12%,12%,8%,94%,43%,13%,13%,12%,64%,9%,9%,0.077 mg/L,"Test/Control (%) at drug concentration ([5]; 10 μg/mL): 11%; Test/Control (%) at drug concentration ([5]; 100 μg/mL): 9%; Test/Control (%) at drug concentration ([6]; CXF HT29, 0.01 μg/mL): 98%; Test/Control (%) at drug concentration ([6]; CXF HT29, 0.1 μg/mL): 14%; Test/Control (%) at drug concentration ([6]; CXF HT29, 1 μg/mL): 11%; Test/Control (%) at drug concentration ([6]; CXF HT29, 10 μg/mL): 13%; Test/Control (%) at drug concentration ([6]; CXF HT29, 100 μg/mL): 11%; Test/Control (%) at drug concentration ([7]; 0.01 μg/mL): 91%; Test/Control (%) at drug concentration ([7]; 0.1 μg/mL): 24%; Test/Control (%) at drug concentration ([7]; 1 μg/mL): 7%; Test/Control (%) at drug concentration ([7]; 10 μg/mL): 5%; Test/Control (%) at drug concentration ([7]; 100 μg/mL): 4%"
CO[C@H]1C[C@H](C)Cc2cc(O)cc(c2)NC(=O)/C=C/CC[C@H](OC)[C@@H](OC(N)=O)/C(C)=C/[C@H](C)[C@H]1O [KOSN1559],,,,,,,,,,,,,,,,,,,,,binding affinity to Hsp90 relative to 17-AAG ([9]; greater binding affinity than 17-AAG): 8 fold; binding affinity to Hsp90 relative to geldanamycin ([9]; greater binding affinity than geldanamycin): 4 fold
CO[C@H]1[C@@H](OC)C[C@H](C)[C@@H](OC)C2=CC(=O)C=C(NC(=O)/C(C)=C/C=C\[C@H](C)[C@@H](OC(N)=O)/C(C)=C/[C@@H]1C)C2=O [macbecin],,,,,,,,,,,,,,,,,,,,0.21 mg/L,

# Second part, led by results:
pKd [1],Structure (SMILES),"Test/Control (%) at drug concentration ([2]; DU145, 0.01 μg/mL)","Test/Control (%) at drug concentration ([2]; DU145, 0.1 μg/mL)","Test/Control (%) at drug concentration ([2]; DU145, 1 μg/mL)","Test/Control (%) at drug concentration ([2]; DU145, 10 μg/mL)","Test/Control (%) at drug concentration ([2]; DU145, 100 μg/mL)","Test/Control (%) at drug concentration ([3]; MCF-7, 0.01 μg/mL)","Test/Control (%) at drug concentration ([3]; MCF-7, 0.1 μg/mL)","Test/Control (%) at drug concentration ([3]; MCF-7, 1 μg/mL)","Test/Control (%) at drug concentration ([3]; MCF-7, 10 μg/mL)","Test/Control (%) at drug concentration ([3]; MCF-7, 100 μg/mL)",Test/Control (%) at drug concentration ([4]; 0.01 μg/mL),Test/Control (%) at drug concentration ([4]; 0.1 μg/mL),Test/Control (%) at drug concentration ([4]; 1 μg/mL),Test/Control (%) at drug concentration ([4]; 10 μg/mL),Test/Control (%) at drug concentration ([4]; 100 μg/mL),Test/Control (%) at drug concentration ([5]; 0.01 μg/mL),Test/Control (%) at drug concentration ([5]; 0.1 μg/mL),Test/Control (%) at drug concentration ([5]; 1 μg/mL),average IC70 value across the cell-line panel [8],also measured
7.70,"CO[C@H]1C[C@H](C)Cc2cccc(c2)NC(=O)/C(C)=C/CC[C@H](C)[C@@H](OC(N)=O)/C(C)=C/[C@H](C)[C@H]1O [Compound 16, 4,5-dihydro-11-O-desmethyl-15-desmethoxy-18,21-didesoxymacbecin]",96%,47%,8%,8%,8%,83%,21%,10%,11%,10%,106%,48%,10%,7%,5%,100%,19%,8%,0.193 mg/L,"Test/Control (%) at drug concentration ([5]; 10 μg/mL): 8%; Test/Control (%) at drug concentration ([5]; 100 μg/mL): 6%; Test/Control (%) at drug concentration ([6]; CXF HT29, 0.01 μg/mL): 106%; Test/Control (%) at drug concentration ([6]; CXF HT29, 0.1 μg/mL): 52%; Test/Control (%) at drug concentration ([6]; CXF HT29, 1 μg/mL): 8%; Test/Control (%) at drug concentration ([6]; CXF HT29, 10 μg/mL): 7%; Test/Control (%) at drug concentration ([6]; CXF HT29, 100 μg/mL): 6%; Test/Control (%) at drug concentration ([7]; 0.01 μg/mL): 100%; Test/Control (%) at drug concentration ([7]; 0.1 μg/mL): 64%; Test/Control (%) at drug concentration ([7]; 1 μg/mL): 7%; Test/Control (%) at drug concentration ([7]; 10 μg/mL): 5%; Test/Control (%) at drug concentration ([7]; 100 μg/mL): 3%"
7.72,"CO[C@H]1C[C@H](C)Cc2cc(ccc2F)NC(=O)/C(C)=C/CC[C@H](C)[C@@H](OC(N)=O)/C(C)=C/[C@H](C)[C@H]1O [Compound 17, 4,5-dihydro-11-O-desmethyl-15-desmethoxy-17-fluoro-18,21-didesoxymacbecin]",93%,7%,8%,10%,9%,86%,20%,10%,10%,8%,100%,41%,10%,11%,11%,97%,22%,7%,0.106 mg/L,"Test/Control (%) at drug concentration ([5]; 10 μg/mL): 8%; Test/Control (%) at drug concentration ([5]; 100 μg/mL): 7%; Test/Control (%) at drug concentration ([6]; CXF HT29, 0.01 μg/mL): 102%; Test/Control (%) at drug concentration ([6]; CXF HT29, 0.1 μg/mL): 49%; Test/Control (%) at drug concentration ([6]; CXF HT29, 1 μg/mL): 7%; Test/Control (%) at drug concentration ([6]; CXF HT29, 10 μg/mL): 7%; Test/Control (%) at drug concentration ([6]; CXF HT29, 100 μg/mL): 8%; Test/Control (%) at drug concentration ([7]; 0.01 μg/mL): 101%; Test/Control (%) at drug concentration ([7]; 0.1 μg/mL): 21%; Test/Control (%) at drug concentration ([7]; 1 μg/mL): 4%; Test/Control (%) at drug concentration ([7]; 10 μg/mL): 3%; Test/Control (%) at drug concentration ([7]; 100 μg/mL): 3%"
